The record followed here is patent US8030336B2, “Nicotinamide-based kinase inhibitors” (YM Biosciences Australia Pty Ltd, priority 2002, dated 2011).

What all share (format): biochemical
In one test the target is T1, abl (Homo sapiens, UniProt P00519).
T1 sequence (P00519 242-493 limits assumed): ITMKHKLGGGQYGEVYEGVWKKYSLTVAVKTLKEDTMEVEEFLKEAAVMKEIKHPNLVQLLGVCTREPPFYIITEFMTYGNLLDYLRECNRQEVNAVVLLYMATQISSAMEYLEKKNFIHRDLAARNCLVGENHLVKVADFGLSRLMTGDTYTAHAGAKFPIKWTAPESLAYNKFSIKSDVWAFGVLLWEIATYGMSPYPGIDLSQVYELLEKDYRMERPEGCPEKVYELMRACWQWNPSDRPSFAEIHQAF
Kind of test: abl kinase assay (ELISA or Alphascreen). The conditions noted are these: read-out: abl inhibition of enzyme activity. The procedure, abridged:
(§1)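 Affinity-purified PTK domain (~1.5 μg) phosphorylated biotinylated peptide (5 μM final) in 50 mM HEPES pH 7.5, 10 mM MgCl2, 150 mM NaCl, 10 μM-1 mM ATP. Phosphotyrosine read by PY20 ELISA or Alphascreen.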

The target of another test is hck (Homo sapiens, UniProt P08631). As to the kind of experiment: hck kinase assay (ELISA or Alphascreen). The conditions noted are these: read-out: hck inhibition of enzyme activity. The procedure, abridged: as §1
Chain of hck (P08631 262-515 limits assumed, species assumed): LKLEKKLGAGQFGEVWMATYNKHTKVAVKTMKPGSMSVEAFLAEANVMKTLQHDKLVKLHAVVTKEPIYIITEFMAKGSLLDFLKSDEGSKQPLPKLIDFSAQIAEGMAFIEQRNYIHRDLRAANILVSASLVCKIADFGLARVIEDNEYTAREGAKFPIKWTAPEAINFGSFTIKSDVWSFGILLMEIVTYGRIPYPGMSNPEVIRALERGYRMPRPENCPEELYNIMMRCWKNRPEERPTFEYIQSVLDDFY
A further test addresses fes (Homo sapiens, UniProt P07332). Kind of test: fes kinase assay (ELISA or Alphascreen). The conditions noted are these: read-out: fes inhibition of enzyme activity. A digest of the protocol:
as §1

The next test deals with T2, fms (Homo sapiens, UniProt P07333).
T2 sequence (P07333 582-910 limits assumed): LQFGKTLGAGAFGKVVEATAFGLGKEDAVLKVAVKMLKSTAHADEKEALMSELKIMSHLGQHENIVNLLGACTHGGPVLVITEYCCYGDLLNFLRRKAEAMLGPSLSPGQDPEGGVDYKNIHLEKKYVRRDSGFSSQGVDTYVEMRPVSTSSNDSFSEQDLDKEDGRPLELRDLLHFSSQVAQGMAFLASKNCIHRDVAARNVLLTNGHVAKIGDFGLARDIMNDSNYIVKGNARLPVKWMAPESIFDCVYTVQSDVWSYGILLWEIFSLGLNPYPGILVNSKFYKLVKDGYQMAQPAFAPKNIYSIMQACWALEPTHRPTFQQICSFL
Kind of test: fms kinase assay (ELISA or Alphascreen). The conditions noted are these: read-out: fms inhibition of enzyme activity. The procedure, abridged: as §1

In the next test the target is T3, human JAK3 (Homo sapiens, UniProt P52333).
T3 construct: The kinase domain of human JAK3 was amplified from U937mRNA; His tag (from the pFastBac HTb vector) (N); made in house; host or cells: baculovirus; Sf9 for virus, High Five insect cells for production
T3 sequence (P52333 822-1111 limits assumed): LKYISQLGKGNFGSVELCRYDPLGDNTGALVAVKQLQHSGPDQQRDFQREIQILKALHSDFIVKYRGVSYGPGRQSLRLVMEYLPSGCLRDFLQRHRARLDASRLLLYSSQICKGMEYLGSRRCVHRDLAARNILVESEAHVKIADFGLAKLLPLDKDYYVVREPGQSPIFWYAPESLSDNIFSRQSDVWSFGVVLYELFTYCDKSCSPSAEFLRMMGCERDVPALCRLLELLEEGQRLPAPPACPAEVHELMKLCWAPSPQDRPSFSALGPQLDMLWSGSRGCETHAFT
Kind of test: JAK3 kinase assay (ELISA or Alphascreen). Conditions: read-out: Jak3 inhibition of enzyme activity. A digest of the protocol: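 His-tagged human JAK3 kinase domain from High Five cells, ~1.5 μg per assay, in 50 mM HEPES pH 7.5, 10 mM MgCl2, 150 mM NaCl, 10 μM-1 mM ATP, 5 μM biotinylated peptide substrate. Phosphotyrosine by PY20 ELISA or Alphascreen.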

In a further test the target is T4, human JAK2 (Homo sapiens, UniProt O60674).
T4 construct: The kinase domain of human JAK2 was amplified from U937mRNA; His tag (from the pFastBac HTc vector) (N); made in house; host or cells: baculovirus; Sf9 for virus, High Five insect cells for production
T4 sequence (O60674 849-1124 limits assumed): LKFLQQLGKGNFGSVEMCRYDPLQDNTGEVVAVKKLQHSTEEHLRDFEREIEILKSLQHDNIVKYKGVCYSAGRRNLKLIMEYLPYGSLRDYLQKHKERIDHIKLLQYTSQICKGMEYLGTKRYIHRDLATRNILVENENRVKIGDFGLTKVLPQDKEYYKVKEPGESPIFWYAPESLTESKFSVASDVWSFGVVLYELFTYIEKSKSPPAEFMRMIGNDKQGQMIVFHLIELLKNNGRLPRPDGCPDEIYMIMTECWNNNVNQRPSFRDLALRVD
As to the kind of experiment: JAK2 kinase assay (ELISA or Alphascreen). The conditions noted are these: read-out: Jak2 inhibition of enzyme activity. The procedure, abridged:
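His-tagged human JAK2 kinase domain from baculovirus-infected insect cells, ~1.5 μg per assay, in 50 mM HEPES pH 7.5, 10 mM MgCl2, 150 mM NaCl, with 10 μM–1 mM ATP and 5 μM biotinylated peptide substrate. Phosphotyrosine detected by PY20 ELISA or AlphaScreen.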

A further test addresses T5, Zap70 (Homo sapiens, UniProt P43403).
T5 sequence (P43403 338-600 limits assumed): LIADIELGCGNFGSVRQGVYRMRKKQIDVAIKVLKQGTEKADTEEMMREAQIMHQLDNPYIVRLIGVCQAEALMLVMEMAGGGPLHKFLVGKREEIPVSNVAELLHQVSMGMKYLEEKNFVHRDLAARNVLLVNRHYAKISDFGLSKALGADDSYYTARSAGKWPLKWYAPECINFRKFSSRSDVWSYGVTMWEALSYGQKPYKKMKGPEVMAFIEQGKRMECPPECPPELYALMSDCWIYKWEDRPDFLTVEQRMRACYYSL
As to the kind of experiment: Zap70 kinase assay (ELISA or Alphascreen). The conditions noted are these: read-out: Zap70 inhibition of enzyme activity. A digest of the protocol: as §1

Chain of fes (P07332 561-822 limits assumed, species assumed): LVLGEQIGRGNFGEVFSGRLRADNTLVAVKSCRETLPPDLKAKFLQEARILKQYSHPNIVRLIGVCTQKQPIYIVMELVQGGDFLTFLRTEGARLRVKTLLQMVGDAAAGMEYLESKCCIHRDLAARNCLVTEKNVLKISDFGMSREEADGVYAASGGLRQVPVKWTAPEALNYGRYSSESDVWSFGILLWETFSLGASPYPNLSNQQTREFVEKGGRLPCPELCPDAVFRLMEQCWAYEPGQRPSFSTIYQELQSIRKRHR

For `COc1cccc(-c2cncc(C(=O)NCc3ccco3)c2)c1`, the inhibition at 10 µM on abl, on hck, on fes, at fms, on human JAK3 and at human JAK2 was less than 50% throughout. In addition, the inhibition at 10 µM on Zap70 was no less than 50%.

For the molecule `CN(C)CCNC(=O)c1cncc(-c2ccc(F)cc2)c1`, the inhibition at 10 µM on abl, at hck, on fes, at fms, on human JAK3 and on human JAK2 was less than 50% each time. At Zap70, the inhibition at 10 µM is less than 50%.

Turning to `Cc1ccc(F)cc1NC(=O)c1cncc(-c2ccc3c(c2)OCO3)c1`, the inhibition at 10 µM at abl, at hck, at fes, at fms, on human JAK3 and at human JAK2 was less than 50% throughout. Besides, the inhibition at 10 µM on Zap70 was less than 50%.

Take `O=C(Nc1ccccc1)c1cncc(-c2cccnc2)c1`: the inhibition at 10 µM on abl, on hck, at fes, on fms, on human JAK3 and at human JAK2 was less than 50% each time. On Zap70, the inhibition at 10 µM was no less than 50%.

`Cc1ccc(CNC(=O)c2cncc(-c3cccs3)c2)cc1`: the inhibition at 10 µM at abl was less than 50%; at hck, less than 50%; on fes, no less than 50%; at fms, less than 50%; on human JAK3 it was less than 50%; at Zap70, less than 50%.

As to `CC(C)NC(=O)c1cncc(-c2cccs2)c1`, the inhibition at 10 µM was less than 50% at abl; less than 50% on hck; no less than 50% on fes; no less than 50% at fms; less than 50% at human JAK3; less than 50% at human JAK2. For the same molecule, the inhibition at 10 µM on Zap70 is less than 50%.

As for `CC(CCc1ccccc1)NC(=O)c1cncc(-c2cccs2)c1` (stereo not drawn), the inhibition at 10 µM on abl is less than 50%; at hck, less than 50%; on fes it was no less than 50%; at fms, less than 50%; on human JAK3, less than 50%; at human JAK2 it was less than 50%. On Zap70, the inhibition at 10 µM is less than 50%.

Regarding `O=C(Nc1ccccc1)c1cncc(-c2cccs2)c1`, the inhibition at 10 µM at abl is less than 50%; at hck it was less than 50%; at fes it was no less than 50%; on fms, less than 50%; at human JAK3, less than 50%; at human JAK2 it was less than 50%. In addition, the inhibition at 10 µM on Zap70 was less than 50%.

On to `CC(NC(=O)c1cncc(-c2cccs2)c1)c1ccc(F)cc1` (stereo not drawn), for which the inhibition at 10 µM at abl is less than 50%; on hck, less than 50%; at fes it was no less than 50%; at fms, less than 50%; at human JAK3 it was less than 50%; on human JAK2, less than 50%. The inhibition at 10 µM at Zap70 was less than 50%.

For `CN(Cc1ccccc1)C(=O)c1cncc(-c2cccs2)c1`, the inhibition at 10 µM on abl is less than 50%; on hck, less than 50%; at fes, no less than 50%; on fms, less than 50%; on human JAK3, less than 50%; at human JAK2, less than 50%. Besides, on Zap70, the inhibition at 10 µM is less than 50%.

`COc1ccc(CNC(=O)c2cncc(-c3cccc(OC)c3)c2)cc1`: the inhibition at 10 µM at abl, at hck, on fes, at fms, on human JAK3 and on human JAK2 was less than 50% throughout. In addition, the inhibition at 10 µM at Zap70 is no less than 50%.

With `COc1cc(CNC(=O)c2cncc(-c3cccc(OC)c3)c2)cc(OC)c1`, the inhibition at 10 µM at abl, on hck, at fes, on fms, at human JAK3 and on human JAK2 was less than 50% each time. The inhibition at 10 µM on Zap70 is no less than 50%.

As to `CC(C)C(CO)NC(=O)c1cncc(-c2ccc3c(c2)OCO3)c1` (stereo not drawn), the inhibition at 10 µM at abl, on hck, on fes, at fms, at human JAK3 and at Zap70 was less than 50% throughout.

With `COc1cc(-c2cncc(C(=O)Nc3ccccc3C)c2)cc(OC)c1OC`, the inhibition at 10 µM at abl is no less than 50%; at hck it was no less than 50%; at fes it was less than 50%; at fms, no less than 50%; at human JAK3, less than 50%; on human JAK2, less than 50%. The inhibition at 10 µM at Zap70 was less than 50%.

Consider `O=C(NCc1ccc(N2CCOCC2)cc1)c1cncc(-c2ccc3c(c2)OCO3)c1`, for which the inhibition at 10 µM on abl, at hck, on fes, on fms, on human JAK3 and on human JAK2 was less than 50% in each case.

For the molecule `COc1cccc(-c2cncc(C(=O)Nc3ccc(F)cc3C)c2)c1`, the inhibition at 10 µM on abl was less than 50%; at hck it was no less than 50%; at fes, less than 50%; at fms, less than 50%; on human JAK3, less than 50%; on human JAK2, less than 50%.

Regarding `COc1ccc(CNC(=O)c2cncc(-c3cc(C)c(O)c(C)c3)c2)cc1`, the inhibition at 10 µM at abl, on hck, at fes, at fms, at human JAK3 and at Zap70 was less than 50% each time.

For `COc1cccc(-c2cncc(C(=O)Nc3ccc(OC)cc3OC)c2)c1`, the inhibition at 10 µM at abl, at hck, at fes, on fms, at human JAK3 and at human JAK2 was less than 50% in each case.

Turning to `CC(NC(=O)c1cncc(-c2cccnc2)c1)c1ccc(F)cc1` (stereo not drawn), the inhibition at 10 µM on abl, on hck, on fes, on fms, on human JAK3 and on Zap70 was less than 50% each time.

For the molecule `Cc1cc(F)ccc1NC(=O)c1cncc(-c2cc(C)c(O)c(C)c2)c1`, the inhibition at 10 µM was no less than 50% on abl; no less than 50% at hck; less than 50% on fes; no less than 50% at fms; less than 50% at human JAK3; less than 50% at human JAK2.

With `CC(C)C(CO)NC(=O)c1cncc(-c2cccnc2)c1` (stereo not drawn), the inhibition at 10 µM at abl, on hck, at fes, at fms, at human JAK3 and on Zap70 was less than 50% in each case.
